Read-outs that look alike come from different tables or passages of the source. A value given as a limit tells only on which side of the number the result lay.

In this test the test system is co-cultured μBBB models (bEnd.3 endothelial cells and C8-D1A astrocytes). The note with it: for period of transient TEER drop: co-cultured μBBB on day 4. The protocol:
To evaluate the fabricated μBBB system, three methods were employed: (1) Cell imaging to observe structure and morphology, (2) TEER levels to evaluate cell confluence and tight junction integrity, and (3) permeability assays to evaluate barrier selectivity. Cells were imaged with a Live/Dead assay to verify cell viability, and immunostained to look at expression of astrocyte marker GFAP and tight junction component […] (ZO-1). TEER was measured as an indicator of cell confluence and tight junction integrity, with time to maximum TEER being indicative of BBB development time. Fluxes of fluorescent-labeled tracer molecules were measured to assess permeability to larger solutes. […] Permeability was measured in μBBB models exposed to DMEM:F12 media with elevated pH (>10) for 4 h.
Over the course of the μBBB model evaluation experiments, TEER was measured twice a day to monitor cell confluence and development of tight junctions. For measurement of TEER, voltage and current electrode wires were connected via an electrode adaptor (WPI) to an EVOM2 epithelial voltohmmeter (WPI). The EVOM2 passes a constant 10 μA AC current at 12.5 Hz while measuring resistance. To calculate TEER, initial D0 Background resistances Rb were subtracted from total resistance RC at each time point and normalized for area, giving TEER values in Ωcm^2 as in the following equation: TEER=(RC−Rb)A
TEER of transwell cultures were measured daily by placing them in an Endohm chamber (WPI) and connecting it to the EVOM2.

Turning to `NCCc1c[nH]cn1` [histamine], under “100 μM histamine”, the “time for TEER to return to initial levels” value is “within six minutes” and the “period of transient TEER drop” value was 5 to 7 min. Further, for the setting “150 μM histamine”, the “time for TEER to return to initial levels” value is no more than 15 min and the “period of transient TEER drop” value fell in the range of 8 to 15 min.

(Values after US9513280B2, “Microfluidic biological barrier model and associated method” (The University of Utah Research Foundation, priority 2012, dated 2016).)
